Data taken from PMC6178619, “Arylvinylpiperazine Amides, a New Class of Potent Inhibitors Targeting QcrB of Mycobacterium tuberculosis” (mBio, 2018).

What was measured:
Type in all cases: cell-based, Mycobacterium tuberculosis
[1] = tested on: AX-resistant mutants of M. tuberculosis H37Rv
[2] = tested on: H37Rv Δcyd KO with a QcrB(A317V) mutation
[3] = tested on: AX-resistant mutants of M. tuberculosis H37Rv (QcrB S182P, M342V, M342I)
[4] = tested on: Q203-resistant strain of M. tuberculosis H37Rv (QcrB T313A)
[5] = tested on: LPZS-resistant strain of M. tuberculosis H37Rv (QcrB L176P)

SMILES | Intracellular ATP level [1] | OCR change from basal on compound addition [2] | Increase in MIC compared to parental strain H37Rv [3] [fold] | Cross-resistance [4] | Cross-resistance [5]
COc1nc2ccc(Br)cc2cc1[C@@H](c1ccccc1)[C@@](O)(CCN(C)C)c1cccc2ccccc12 [BDQ, bedaquiline, reference compound] | depleted |  |  |  | 
CCc1nc2ccc(Cl)cn2c1C(=O)NCc1ccc(N2CCC(c3ccc(OC(F)(F)F)cc3)CC2)cc1 [Compound Q203, reference compound] | depleted | unaffected |  |  | 
O=C(/C=C/c1cccs1)N1CCN(Cc2ccc3c(c2)OCO3)CC1 [AX-35, (E)-1-(4-(Benzo[d][1,3]dioxol-5-ylmethyl)piperazin-1-yl)-3-(thiophen-2-yl)prop-2-en-1-one] | essentially unaffected | decreases | 50 | cross-resistant | cross-resistant
O=C(/C=C/c1ccsc1)N1CCN(Cc2ccc3c(c2)OCO3)CC1 [AX-36, (E)-1-(4-(Benzo[d][1,3]dioxol-5-ylmethyl)piperazin-1-yl)-3-(thiophen-3-yl)prop-2-en-1-one] | essentially unaffected |  | 50 | cross-resistant | cross-resistant
